Source: ChEMBL document CHEMBL1201862, “PubChem BioAssay data set” (2004)
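Following 48 hours of exposure in 96-well plates, responses at five concentrations were used to interpolate endpoints linearly. The concentration for 50% growth inhibition is given as GI50.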 Activity calls are given as the source filed them. No stated cut-off is given here; in the data, active = GI50 up to about 1.1 µM and inactive = higher.

Tests used:
Assay in all cases: DTP human tumour cell line panel, 48 h
NCI-H23 = tested on: NCI-H23
HCT-116 = tested on: HCT-116
TK-10 = tested on: TK-10
SF-539 = tested on: SF-539
U-251 = tested on: U-251
RPMI-8226 = tested on: RPMI-8226
OVCAR-3 = tested on: OVCAR-3
T47D = tested on: T47D
EKVX = tested on: EKVX
UO-31 = tested on: UO-31
SW-620 = tested on: SW-620
COLO 205 = tested on: COLO 205
SF-295 = tested on: SF-295
HOP-62 = tested on: HOP-62
CAKI-1 = tested on: CAKI-1
BT-549 = tested on: BT-549
SN12C = tested on: SN12C
MCF7 = tested on: MCF7
KM12 = tested on: KM12
RXF 393 = tested on: RXF 393
MDA-MB-231 = tested on: MDA-MB-231
SK-MEL-28 = tested on: SK-MEL-28
CCRF-CEM = tested on: CCRF-CEM
HOP-92 = tested on: HOP-92
SK-OV-3 = tested on: SK-OV-3
HT-29 = tested on: HT-29
SK-MEL-5 = tested on: SK-MEL-5
SF-268 = tested on: SF-268
OVCAR-5 = tested on: OVCAR-5
NCI-H522 = tested on: NCI-H522
SK-MEL-2 = tested on: SK-MEL-2
MDA-N = tested on: MDA-N
MDA-MB-435 = tested on: MDA-MB-435
K562 = tested on: K562
UACC-257 = tested on: UACC-257
UACC-62 = tested on: UACC-62
NCI/ADR-RES = tested on: NCI/ADR-RES
786-0 = tested on: 786-0
MOLT-4 = tested on: MOLT-4
SR = tested on: SR
ACHN = tested on: ACHN
A549 = tested on: A549
IGROV-1 = tested on: IGROV-1
Hs-578T = tested on: Hs-578T
SNB-19 = tested on: SNB-19
OVCAR-8 = tested on: OVCAR-8
NCI-H226 = tested on: NCI-H226
SNB-75 = tested on: SNB-75
M14 = tested on: M14
OVCAR-4 = tested on: OVCAR-4
Malme-3M = tested on: Malme-3M
PC-3 = tested on: PC-3

Measured: GI50

[N-]=[N+]=Nc1cc(=O)[nH]c2ccccc12
inactive: NCI-H23 > 100 µM | HCT-116 > 100 µM | TK-10 53 µM | SF-539 > 100 µM | U-251 > 100 µM | RPMI-8226 81.8 µM | OVCAR-3 65.2 µM | T47D 64.9 µM | EKVX 4.98 µM | UO-31 31.4 µM | SW-620 > 100 µM | COLO 205 > 100 µM | SF-295 > 100 µM | HOP-62 > 100 µM | CAKI-1 > 100 µM | BT-549 83.2 µM | SN12C > 100 µM | MCF7 52 µM | KM12 > 100 µM | RXF 393 > 100 µM | MDA-MB-231 > 100 µM | SK-MEL-28 > 100 µM | CCRF-CEM > 100 µM | HOP-92 85.3 µM | SK-OV-3 85.3 µM | HT-29 > 100 µM | SK-MEL-5 > 100 µM | SF-268 > 100 µM | OVCAR-5 > 100 µM | NCI-H522 > 100 µM | SK-MEL-2 > 100 µM | MDA-N > 100 µM | MDA-MB-435 > 100 µM | K562 > 100 µM | UACC-257 > 100 µM | UACC-62 44.2 µM | NCI/ADR-RES > 100 µM | 786-0 > 100 µM | MOLT-4 92.5 µM | SR 41.3 µM | ACHN > 100 µM | A549 > 100 µM | IGROV-1 31.9 µM | Hs-578T 44.3 µM | SNB-19 > 100 µM | OVCAR-8 > 100 µM | NCI-H226 45.9 µM | SNB-75 32.3 µM | M14 > 100 µM | OVCAR-4 > 100 µM | Malme-3M 94.6 µM | PC-3 39.4 µM
